The results in this text go back to US11766412B2, “Methods of treating or alleviating adenylosuccinatelyase (ADSL) deficiency using spermidine or a pharmaceutically acceptable salt of spermidine” (GENEHEAL BIOTECHNOLOGY CO., LTD., priority 2016, dated 2023).

Non-standard residues stand in square brackets, D forms with d. Residues, ends and D or L forms follow the SMILES beside them. Arg(NO2) = N=C(NCCC[C@H](N)C(=O)O)N[N+](=O)[O-]; Dab = NCC[C@H](N)C(=O)O

This assay has as its system SAICAR synthetase. Description: Inhibition of SAICAR accumulation, biochemical enzyme activity experiments and cell biology experiments. The text has this: On the basis of the above results, the crystal structure conformations in SAICAR synthetases of Saccharomyces cerevisiae (PDB: 2CNQ) and Escherichia coli (PDB: 2GQS) are used as receptor structures for calculating and screening, since there is no conformation which can bind CAIR in human PAICS crystal structure, and no catalytic conformation formed in the catalytic region, and the results obtained by calculation are not reliable. 4661 of small molecule drugs in the DrugBank (www.drugbank.ca) are calculated and screened by using the ligand fit module of Discovery studio. The conformations are ordered according to dock scores, and then the first 500 conformations are selected. After eliminating the repetitions, key screening results are obtained. In addition, the inhibition ratios of the compounds against SAICAR accumulation are confirmed by biochemical enzyme activity experiments and cell biology experiments, as shown in Table 1.

For `N[C@@H](CCC(=O)N[C@@H](CSCc1ccc([N+](=O)[O-])cc1)C(=O)NCC(=O)O)C(=O)O` [D1303686, S-(P-Nitrobenzyl)Glutathione], the “Inhibition ratios against SAICAR accumulation” value (“Inhibition ratios” below) is recorded as 63.83%.

Regarding `NC[C@H]1O[C@H](O[C@H]2[C@H](O)[C@@H](O)[C@H](N)C[C@@H]2N)[C@H](N)[C@@H](O)[C@@H]1O` [D1304808, Neamine], the “Inhibition ratios” value is reported as 37.11%. To `N[C@@H](Cc1cc(N=Nc2ccccn2)c(O)cc1O)C(=O)O` [DB01634, 2-Oxy-4-Hydroxy-5-(2-Hydrazinopyridine)Phenylalanine] belongs 23.7%; to `NC(CC1=CC(=NC2CC2c2ccccc2)C(O)=CC1=O)C(=O)O` (stereo not drawn) [DB01657, 2-Amino-3-[4-Hydroxy-6-Oxo-3-(2-Phenyl-Cyclopropylimino)-Cyclohexa-1,4-Dienyl]-Propionic acid], 22.9%. As to `Cc1ncc(COP(=O)(O)O)c(CN[C@@H](CCC(=O)O)C(=O)O)c1O` [DB01813, Pyridoxyl-Glutamic Acid-5′-Monophosphate], the “Inhibition ratios” value is recorded as 40.9%.

Consider `N[C@@H](CCCCNC(C(=O)O)C(=O)O)C(=O)O` [DB01815, Nz-(Dicarboxymethyl)Lysine], for which the “Inhibition ratios” value worked out at 22.68%. To `NCC[C@H](NC(=O)[C@@H](N)CCCN=C(N)N[N+](=O)[O-])C(N)=O` [DB01821, L-N(Omega)-Nitroarginine-2,4-L-Diaminobutyric Amide] (H-[Arg(NO2)]-[Dab]-NH2) belongs 57.11%; to `Nc1ncnc2c1ncn2[C@@H]1O[C@H](COP(=O)(O)OC(=O)[C@@H](N)CC(=O)O)[C@@H](O)[C@H]1O` [DB01895, Aspartyl-Adenosine-5′-Monophosphate], 22.918%. As to `NC(CSC1C=C(C(N)C(=O)O)ON1)C(=O)O` (stereo not drawn) [DB01974, 2-Amino-3-[5-(Amino-Carboxy-Methyl)-2,3-Dihydro-Isoxazol-3-Ylsulfanyl]-Propionic Acid], the “Inhibition ratios” value was 66.711%. To `NCCC[C@H](NC(=O)CP(=O)(O)O)C(=O)O` [DB02011, N-(phosphonoacetyl)-L-Ornithine] belongs 41.85%. `O=c1[nH]cnc2c([C@@H]3N[C@H](COP(=O)(O)O)[C@@H](O)[C@H]3O)c[nH]c12` [DB02075, (1s)-1-(9-Deazahypoxanthin-9-yl)-1,4-Di Deoxy-1,4-Imino-D-Ribitol-5-Phosphate]: the “Inhibition ratios” value is recorded as 28.5%. Take `NC(=O)[C@@H]1C[C@@H](NC(=O)[C@@H](N)CCCN=C(N)N[N+](=O)[O-])CN1` [DB02077, L-N(Omega)-Nitroarginine-(4r)-Amino-L-Proline Amide]: the “Inhibition ratios” value was 71.8%. To `NC(=NCCCC(N)C(=O)O)NC(CC(=O)O)C(=O)O` (stereo not drawn) [DB02267, Argininosuccinate] belongs 86.81%; to `OCC(OS(O)(O)O)[C@H](O)CN1C[C@@H](O)[C@H](O)[C@H]1CO` (stereo partly drawn) [DB02492, Ghavamiol], 17.4%. To `Cc1ccc(OCC(=CC=O)Nc2cc(C[C@H](N)C(=O)O)c(O)cc2O)cc1` [DB02537, 2 -Hydroxy-5-({1-[(4-Methylphenoxy)Methyl]-3-Oxoprop-1-Enyl}Amino)-L-Tyrosin] belongs 71.1%; to `Cc1ncc(COP(=O)(O)O)c(CNCC(=O)O)c1O` [DB02824, N-Pyridoxyl-Glycine-5-Monophosphate], 77.97%. Consider `CC(N)C(CCCCCC(=O)O)NC(=O)OP(=O)(O)O` (stereo not drawn) [DB02927, Mixed Carbamic Phosphoric Acid Anhydride of 7,8-Diaminononanic acid], for which the “Inhibition ratios” value was 22.8%. Consider `CC(N)C(CCCCCC(=O)O)CC(=O)O` (stereo not drawn) [DB02941, 3-(1-Aminoethyl)Nonanedioic Acid], for which the “Inhibition ratios” value is 69.8%. Take `N[C@@H](CCC(=O)N[C@@H](CS(=O)(=O)O)C(=O)NCC(=O)O)C(=O)O` [DB03003, Glutathione Sulfonic acid]: the “Inhibition ratios” value is recorded as 38%. Regarding `C=C[C@@H](NC(=O)[C@H](CS)NC(=O)CCC[C@H](N)C(=O)O)C(=O)O` [DB03427, Delta-(L-Alpha-Aminoadipoyl)-L-Cysteinyl-D-Vinylglycine], the “Inhibition ratios” value is given as 13.3%. With `Cc1ncc(COP(=O)(O)O)c(CNC(C(C)C)P(=O)(O)O)c1O` (stereo not drawn) [DB03433, {[(3-Hydroxy-2-Methyl-5-Phosphonooxymethyl-Pyridin-4-ylmethyl)-Amino]-2-Methyl-Propyl}-Phosphonic Acid], the “Inhibition ratios” value is reported as 53.38%. To `NCCCCNCCCN` [DB03566, Spermidine] belongs 68.98%; to `NCCC[C@H](NC(=O)CCC(=O)O)C(=O)O` [DB03582, N-2-Succinylornithine], 19.97%; to `N[C@@H](CCC(=O)N[C@@H](CSCc1ccccc1)C(=O)NCC(=O)O)C(=O)O` [DB03602, S-Benzyl-Glutathione], 36.5%. To `CC(N)C(CCCCCC(=O)O)NC(=O)O` (stereo not drawn) [DB03624, 7-(Carboxyamino)-8-Amino-Nonanoic Acid] belongs 51.9%; to `C[C@@H](NC(=O)CCCC[C@H](NC(=O)CN)C(=O)O)C(=O)O` [DB03927, Glycyl-L-Alpha-Amino-Epsilon-Pimelyl-D-Alanine], 29.859%.

Regarding `N[C@@H](CCC(=O)N[C@@H](CSCO)C(=O)NCC(=O)O)C(=O)O` [DB04153, S-Hydroxymethyl Glutathione], the “Inhibition ratios” value is listed as 58%. To `NC(CCCCN[C@@H](CCC(=O)O)C(=O)O)C(=O)O` (stereo partly drawn) [DB04207, N-(5-Amino-5-Carboxypentyl)-Glutamic Acid] belongs 65.69%; to `N[C@@H](CSC1CC(CC(=O)O)ON1N)C(=O)O` (stereo partly drawn) [DB04323, 2-Amino-3-(Cystein-S-Yl)-Isoxazolidin-5-Yl-Acetic acid], 56.68%; to `N[C@@H](CCC(=O)N[C@@H](CSCc1cccc(I)c1)C(=O)NCC(=O)O)C(=O)O` [DB04341, S-(3-Iodobenzyl)Glutathione], 9.9%. To `Cc1cccc(C2=C(c3ccc4ncccc4n3)CNN2)n1` [DB04434, Naphthyridine Inhibitor] belongs 22.98%; to `CN(C)c1ncnc2c1ncn2[C@@H]1O[C@H](COP(=O)(O)O)[C@@H](N)[C@H]1O` [DB04602, PUROMYCIN AMINONUCLEOSIDE-5′-MONOPHOSPHATE], 12.9%. To `CN(CC[C@H](N)CC(=O)N[C@H]1C=C[C@H](N2C=C[C@@](N)(O)NC2=O)O[C@@H]1C(=O)O)C(=N)N` [DB04649, TETRAHEDRAL INTERMEDIATE OF BLASTICIDIN S] belongs 20.09%; to `NCCCCCCNCCCCCCN` [DB04684, BIS(HEXAMETHYLENE)TRIAMINE], 9.3%. `N[C@@H](CCC(=O)N[C@@H](CS(=O)O)C(=O)NCC(=O)O)C(=O)O` [DB04700, GLUTATHIONE SULFINATE]: the “Inhibition ratios” value stood at 9.98%. As to `CSC[C@H](NC(=O)CC[C@H](N)C(=O)O)C(=O)NCC(=O)O` [DB04701, S-METHYL-GLUTATHIONE], the “Inhibition ratios” value is on record as 40.1%.

Turning to `Cc1ncc(COP(=O)(O)O)c(CN[C@H](CCC(=O)O)C(=O)O)c1O` [DB04762, N-PYRIDOXYL-D-GLUTAMIC ACID-5′-MONOPHOSPHATE], the “Inhibition ratios” value worked out at 27.7%. On to `C[C@H](NC(=NCC(=O)O)Nc1ccc(C#N)cc1)c1ccccc1` [DB04778, SC45647], for which the “Inhibition ratios” value worked out at 11.29%.

“N-ethyl-N[3-(propylamino)propyl]propane-1,3-diamine [DB04633]”: the “Inhibition ratios” value was 12.798%.
